In patent US9102637B2, “Bicyclic thiazole compounds” (CARNA BIOSCIENCES INC., priority 2013, dated 2015) one finds IC50 data, which are given here for 25 molecules.

In experiment [1] the test system is human colon cancer cell line HCT-116. Nature of the experiment: In vitro cell proliferation assay. Type of experiment: cell-based. To be noted: HCT-116 cell number, 72 hours of treatment. The procedure: In Vitro Cell Proliferation Assay
The human colon cancer cell line HCT-116 was seeded at 600 cells/well in 96 well-plate (ThermoFisher) using RPMI medium containing 2 mM L-glutamine (Invitrogen) supplemented with 10% FCS (Invitrogen) and 1% penicillin/streptomycin (Sigma) and maintained at 37° C., 5% CO2 and 100% humidity. The following day, old medium was withdrawn and the fresh medium was added. Initial numbers of cells were counted before adding compounds. Then cells were treated in duplicates with compounds (a half-logarithmic serial dilution from 10 μM). Eight untreated control wells were incubated in each plate. After 72 hours of treatment, cells were fixed with 2% paraformaldehyde, and the nucleus were stained with Hoechst 33258 (Invitrogen). The numbers of cells were counted with ArrayScan™ VTI (ThermoFisher Scientific).

Experiment [2] has as its target human TNIK (N-terminal segment, TNIK_N, residues 1-314) (Homo sapiens (Human), UniProt Q9UKE5). Nature of the experiment: TNIK kinase assay (mobility shift). In kind it is biochemical. To be noted: TNIK_N kinase activity, 25 μM ATP, 1 h at room temperature. The source says:
Preparation of Recombinant Human TNIK (N-Terminal Segment):
A cDNA encoding the N-terminal segment (TNIK_N, residues 1-314) containing the kinase domain of human TNIK (NM_015028.1) was amplified from cDNA mixture synthesized from human tissue (Biochain) by PCR using the following primers.
The cDNA was subcloned into baculovirus transfer vector pFastBac_GSTb that includes protease cleavage site and glutathione S-transferase purification tag (GST-tag). The plasmid was purified and the insertion of the pFastBac_GSTb-TNIK_N was confirmed by DNA sequencing. Then E. coli DH10Bac competent cells were transformed with the plasmid to prepare the recombinant bacmid according to the instructions for the Bac-to-Bac™ baculovirus expression systems (Invitrogen). The Sf9 cells were transfected with the recombinant bacmid containing pFastBac_GSTb-TNIK_N using Cellfectin Reagent (Invitrogen) in SF-9001I serum free media (Invitrogen). The viral supernatant was collected from the medium 72 h after transfection. The virus was amplified three times by infecting actively growing Sf9 or Sf21 cells in Grace's insect media (Invitrogen) supplemented with 10% FCS and an antibiotic-antimycotic reagent (Invitrogen) for 72 h at 27° C. in T-flask or roller bottles. The titer of amplified TNIK_N virus was estimated at 2.36×10^8 pfu/ml by using BacPAK™ Baculovirus Rapid Titer kit (Clontech).
Log-phase Sf21 cells (2×10^6 cells/ml) in the Grace's insect media were infected with the recombinant baculovirus at MOI of 3.0 and incubated in roller bottles (250 ml media per bottle) for 72 h at 27° C., after which, the cells were collected by centrifugation, and the cell pellet washed with cold PBS and kept at −80° C. until purification. The following purification procedures were carried out at 4° C. The frozen cells were thawed on ice and lysed in lysis buffer (50 mM Tris-HCl, pH 7.5, 150 mM NaCl, 1% Nonidet P-40, 5 mM DTT, 0.5 mM EDTA, 0.5 mM EGTA) supplemented with 1 mM phenylmethansulfonylfluoride, 2 μg/ml leupeptin, 2 μg/ml aprotinin, 1 mM NaF, 100 μM sodium orthovanadate, and 1 μM cantharidin by sonication. The suspended lysate was cleared by centrifugation at 9000g for 20 min and the supernatant was incubated for 1 h with glutathione Sepharose beads (GE Healthcare). The beads were suspended in buffer-H (50 mM Tris-HCl, pH 7.5, 1 M NaCl, 1 mM DTT, 0.5 mM EDTA, 0.5 mM EGTA and 0.05% Brij35) and washed with buffer-H followed by buffer-L (50 mM Tris-HCl, pH 7.5, 150 mM NaCl, 1 mM DTT, 0.5 mM EDTA, 0.5 mM EGTA, 0.05% Brij35) in an Econo-pack column (BIO-RAD). The bound TNIK_N was eluted with elution buffer (50 mM Tris-HCl, pH 8.0, 150 mM NaCl, 1 mM DTT, 10% glycerol, 0.5 mM EDTA, 0.5 mM EGTA and 5 mM reduced glutathione). The eluted fractions were collected and determined the protein concentration by Bradford reagent (BIO-RAD). The TNIKN fractions were pooled and desalted using 10DG column (BIORAD) equilibrated with the storage buffer (50 mM Tris-HCl, pH 7.5, 150 mM NaCl, 1 mM DTT, 10% glycerol, 0.05% Brij35). The purified TNIKN was characterized by electrophoresis using 4-20% polyacrylamide gels and matrix-assisted laser desorption/ionization reflection time-of-flight (MALDI-TOF) mass spectrometry on a Voyager-DE RP MALDI/TOF (Applied Biosystems). TNIK_N was confirmed by the molecular weight and. MASCOT Peptide Mass Fingerprint.
The kinase assays were conducted in a 20 μl volume using 384-well plates (Greiner). The reaction mixture consists of compound or vehicle (1% DMSO), 0.08 ng/μl TNIK_N, 1 μM FITC-labeled substrate peptides, including E-aminocaproic acid and 7 amino acids (described as SEQ ID NO.3 in “Kinase assay of TEST EXAMPLE 1” of WO 2010/064111(P.31)), 20 mM Hepes, pH 7.5, 0.01% Triton X-100, 5 mM MgCl2, 25 μM ATP and 2 mM DTT. As blank, TNIK N was excluded from the reaction mixture of vehicle (1% DMSO). […]

Sequence of human TNIK (N-terminal segment, TNIK_N, residues 1-314) (Q9UKE5 1-314): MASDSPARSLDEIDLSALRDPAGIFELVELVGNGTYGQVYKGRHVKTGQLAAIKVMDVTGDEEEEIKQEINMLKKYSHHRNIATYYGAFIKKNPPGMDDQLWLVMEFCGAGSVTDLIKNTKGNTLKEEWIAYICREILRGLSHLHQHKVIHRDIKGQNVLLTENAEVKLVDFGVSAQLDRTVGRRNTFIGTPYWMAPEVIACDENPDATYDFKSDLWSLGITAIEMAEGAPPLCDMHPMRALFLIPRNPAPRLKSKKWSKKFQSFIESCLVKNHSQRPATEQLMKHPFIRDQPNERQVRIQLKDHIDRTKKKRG

As to `NC(=O)c1nc(Nc2ccc3ccccc3c2)sc1NC(=O)c1ccc(NCCOCCO)cc1` [Example 78, 5-(4-{[2-(2-hydroxyethoxy)ethyl]amino}benz-amido)-2-(naphthalen-2-ylamino)thiazole-4-carbox-amide], in experiment [1], the IC50 (as a rule, the concentration that inhibits the measured activity by half) is below 100 nM.

Molecule `NC(=O)c1nc(Nc2ccc3ccccc3c2)sc1NC(=O)c1ccc(CN2CCNCC2)cc1` [Example 19, 2-(naphthalen-2-ylamino)-5-[4-(piperazin-1-ylmethyl)benzamido]thiazole-4-carboxamide] registered a 50% inhibitory concentration (IC50) in experiment [1] of 100 to 1000 nM.

`NC(=O)c1nc(Nc2cccc3ncccc23)sc1NC(=O)c1csc(CN2CCOCC2)c1` [Example 49, 5-[5-(morpholinomethyl)thiophene-3-carbox-amido]-2-(quinolin-5-ylamino)thiazole-4-carboxamide]: in experiment [1], the IC50 is 1000 to 10000 nM.

In the case of `CN(C)Cc1ccc(C(=O)Nc2sc(Nc3ccc4ccccc4c3)nc2C(N)=O)cc1` [Example 20, 5-{4-[(dimethylamino)methyl]benzamido}-2-(naphthalen-2-ylamino)thiazole-4-carboxamide], in experiment [1], the IC50 was below 100 nM.

Consider `NC(=O)c1nc(Nc2ccc3ccccc3c2)sc1NC(=O)c1ccc(NC(=O)CO)cc1` [Example 21, 5-[4-(2-hydroxyacetamido)benzamido]-2-(naphthalen-2-ylamino)thiazole-4-carboxamide], for which, in experiment [1], the half-inhibitory concentration (IC50) is below 100 nM.

As for `NC(=O)c1nc(Nc2ccnc3ccccc23)sc1NC(=O)c1csc(CN2CCOCC2)c1` [Example 67], the IC50 in experiment [1] is 1000 to 10000 nM.

Take `CN1CCN(Cc2cc(C(=O)Nc3sc(Nc4ccc5ccccc5c4)nc3C(N)=O)cs2)CC1` [Example 60, 5-{5-[(4-methylpiperazin-1-yl)methyl]thiophene-3-carboxamido}-2-(naphthalen-2-ylamino) thiazole-4-carboxamide]: the IC50 in experiment [1] was below 100 nM.

On to `NC(=O)c1nc(Nc2cccc3cccnc23)sc1NC(=O)c1ccc(Cn2ccnc2)cc1` [Example 259, 5-{4-[(1H-imidazol-1-yl)methyl]benzamido}-2-(quinolin-8-ylamino)thiazole-4-carboxamide], for which, in experiment [2], the IC50 was determined as 5.5 nM.

Take `CC(C)=CC(=O)Nc1sc(Nc2ccc3cc(CO)ccc3c2)nc1C(N)=O` [Example 139, 2-{[6-(hydroxymethyl)naphthalen-2-yl]amino}-5-(3-methylbut-2-enamido)thiazole-4-carboxamide]: in experiment [2], the IC50 worked out at 1.6 nM.

In the case of `NC(=O)c1nc(Nc2ccc3ccccc3c2)sc1NC(=O)c1ccc(CCO)cc1` [Example 116, 5-[4-(2-hydroxyethyl)benzamido]-2-(naphthalen-2-ylamino)thiazole-4-carboxamide], in experiment [2], the IC50 was 5.8 nM.

`NC(=O)c1nc(Nc2ccc3ccc(F)cc3c2)sc1NC(=O)c1ccc(NCCO)cc1` [Example 124, 2-[(7-fluoronaphthalen-2-yl)amino]-5-{4-[(2-hydroxyethyl)amino]benzamido}thiazole-4-carbox-amide]: the IC50 in experiment [2] is 12.9 nM.

As to `Cc1cn(Cc2ccc(C(=O)Nc3sc(Nc4ccc5ccccc5c4)nc3C(N)=O)cc2)cn1` [Example 238, 5-{4-[(4-methyl-1H-imidazol-1-yl)methyl]benz-amido}-2-(naphthalen-2-ylamino)thiazole-4-carbox-amide], the IC50 in experiment [2] turned out to be 3.1 nM.

In the case of `NC(=O)c1nc(Nc2ccc3ccccc3c2)sc1NC(=O)c1ccc(Cc2nn[nH]n2)cc1` [Example 231, 5-{4-[(2H-tetrazol-5-yl)methyl]benzamido}-2-(naphthalen-2-ylamino)thiazole-4-carboxamide], the IC50 in experiment [2] is 2.9 nM.

As to `NC(=O)c1nc(Nc2ccc3ccccc3c2)sc1NC(=O)c1ccc(CNCCO)cc1` [Example 163, 5-(4-{[(2-hydroxyethyl)amino]methyl}benzamido)-2-(naphthalen-2-ylamino)thiazole-4-carboxamide], the IC50 in experiment [2] came out at 3.7 nM.

As to `NC(=O)c1nc(Nc2ccc3cc(CO)ccc3c2)sc1NC(=O)c1ccsc1` [Example 70, 2-{[6-(hydroxymethyl)naphthalen-2-yl]amino}-5-(thiophene-3-carboxamido)thiazole-4-carbox-amide], the IC50 in experiment [2] was found to be 5.5 nM.

On to `CC(O)CNc1ccc(C(=O)Nc2sc(Nc3ccc4ccccc4c3)nc2C(N)=O)cc1` (stereo not shown) [Example 30, 5-{4-[(2-hydroxypropyl)amino]benzamido}-2-(naphthalen-2-ylamino)thiazole-4-carboxamide], for which, in experiment [2], the half-inhibitory concentration (IC50) is 10.7 nM.

`NC(=O)c1nc(Nc2ccc3ccccc3c2)sc1NC(=O)C#CCO` [Example 218, 5-(4-hydroxybut-2-ynamido)-2-(naphthalen-2-yl-amino)thiazole-4-carboxamide]: the IC50 in experiment [2] worked out at 4.5 nM.

`CN(CCO)c1ccc(C(=O)Nc2sc(Nc3ccc4ccccc4c3)nc2C(N)=O)cc1` [Example 29, 5-{4-[(2-hydroxyethyl)methylamino]benzamido}-2-(naphthalen-2-ylamino)thiazole-4-carboxamide]: the IC50 in experiment [2] was determined as 27.4 nM.

As for `NC(=O)c1nc(Nc2ccc3ccccc3c2)sc1NC(=O)c1ccc(Cn2cnc([N+](=O)[O-])c2)cc1` [Example 239, 2-(naphthalen-2-ylamino)-5-{4-[(4-nitro-1H-imidazol-1-yl)methyl]benzamido}thiazole-4-carbox-amide], in experiment [2], the IC50 was determined as 5.9 nM.

As to `Cc1ccc(C(=O)Nc2sc(Nc3ccc4ccccc4c3)nc2C(N)=O)cc1N` [Example 9, 5-(3-amino-4-methylbenzamido)-2-(naphthalen-2-ylamino)thiazole-4-carboxamide], in experiment [2], the IC50 came to 27.2 nM.

As to `NC(=O)c1nc(Nc2ccc3cc(CO)ccc3c2)sc1NC(=O)C1CC1` [Example 138, 5-(cyclopropanecarboxamido)-2-{[6-(hydroxy-methyl)naphthalen-2-yl]amino}thiazole-4-carbox-amide], the IC50 in experiment [2] came to 5.8 nM.

As for `NC(=O)c1nc(Nc2ccc3cc(F)ccc3c2)sc1NC(=O)c1ccc(Cn2ccnc2)cc1` [Example 249, 5-{4-[(1H-imidazol-1-yl)methyl]benzamido}-2-[(6-fluoronaphthalen-2-yl)amino]thiazole-4-carbox-amide], the IC50 in experiment [2] was determined as 10.1 nM.

`NC(=O)c1nc(Nc2ccc3ccccc3c2)sc1NC(=O)c1ccc(CN2CC(O)C2)cc1` [Example 201, 5-{4-[(3-hydroxyazetidin-1-yl)methyl]benzamido}-2-(naphthalen-2-ylamino)thiazole-4-carbox-amide]: the IC50 in experiment [2] amounted to 5.6 nM.

For `CN(c1ccc2ncccc2c1)c1nc(C(N)=O)c(NC(=O)c2csc(CN3CCOCC3)c2)s1` [Example 51], in experiment [2], the IC50 was determined as 5.7 nM.

In the case of `COc1ccc2cc(Nc3nc(C(N)=O)c(NC(=O)C=C(C)C)s3)ccc2c1` [Example 137, 2-[(6-methoxynaphthalen-2-yl)amino]-5-(3-meth-ylbut-2-enamido)thiazole-4-carboxamide], the IC50 in experiment [2] is 15.2 nM.
